# Experiments:
# Rattus norvegicus = assay: Antiinflammatory activity in po dosed rat assessed as inhibition of carrageenan-induced paw edema after 3 hrs; format: functional; details: read-out: ID50 (the source's name)
# [1] = target: Prostaglandin G/H synthase 1 (Homo sapiens) (UniProt P23219); details: at 100 µM
# Description: Inhibition of COX1 at 100 uM
# [2] = target: T1, Prostaglandin G/H synthase 2 (Homo sapiens) (UniProt P35354); details: at 100 µM
# T1 sequence (whole entry): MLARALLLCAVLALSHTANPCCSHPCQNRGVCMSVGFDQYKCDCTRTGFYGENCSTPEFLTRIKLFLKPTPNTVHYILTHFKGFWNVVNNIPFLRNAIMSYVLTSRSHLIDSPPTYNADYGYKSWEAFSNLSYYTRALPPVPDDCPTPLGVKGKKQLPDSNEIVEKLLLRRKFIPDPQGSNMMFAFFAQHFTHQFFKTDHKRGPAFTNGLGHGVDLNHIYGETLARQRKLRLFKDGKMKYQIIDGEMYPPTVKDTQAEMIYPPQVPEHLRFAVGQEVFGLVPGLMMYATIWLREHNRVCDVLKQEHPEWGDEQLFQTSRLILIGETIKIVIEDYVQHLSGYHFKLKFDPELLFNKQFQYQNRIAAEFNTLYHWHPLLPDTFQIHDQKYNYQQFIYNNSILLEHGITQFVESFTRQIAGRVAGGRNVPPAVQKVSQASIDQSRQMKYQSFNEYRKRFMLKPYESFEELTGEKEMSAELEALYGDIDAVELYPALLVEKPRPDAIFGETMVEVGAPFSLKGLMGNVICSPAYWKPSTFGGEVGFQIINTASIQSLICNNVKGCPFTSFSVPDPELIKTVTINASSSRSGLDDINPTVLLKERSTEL
# Description: Inhibition of COX2 at 100 uM
# [3] = Induction of nitric oxide release at pH 7.4 PBS after 1.5 hrs; format: physicochemical; details: buffer, pH 7.4, 1.5 h
# Serum = assay: Induction of nitric oxide release in rat serum at pH 7.4 after 1.5 hrs; format: cell-free; details: pH 7.4, 1.5 h
# Chain of Prostaglandin G/H synthase 1 (Homo sapiens) (P23219 whole entry): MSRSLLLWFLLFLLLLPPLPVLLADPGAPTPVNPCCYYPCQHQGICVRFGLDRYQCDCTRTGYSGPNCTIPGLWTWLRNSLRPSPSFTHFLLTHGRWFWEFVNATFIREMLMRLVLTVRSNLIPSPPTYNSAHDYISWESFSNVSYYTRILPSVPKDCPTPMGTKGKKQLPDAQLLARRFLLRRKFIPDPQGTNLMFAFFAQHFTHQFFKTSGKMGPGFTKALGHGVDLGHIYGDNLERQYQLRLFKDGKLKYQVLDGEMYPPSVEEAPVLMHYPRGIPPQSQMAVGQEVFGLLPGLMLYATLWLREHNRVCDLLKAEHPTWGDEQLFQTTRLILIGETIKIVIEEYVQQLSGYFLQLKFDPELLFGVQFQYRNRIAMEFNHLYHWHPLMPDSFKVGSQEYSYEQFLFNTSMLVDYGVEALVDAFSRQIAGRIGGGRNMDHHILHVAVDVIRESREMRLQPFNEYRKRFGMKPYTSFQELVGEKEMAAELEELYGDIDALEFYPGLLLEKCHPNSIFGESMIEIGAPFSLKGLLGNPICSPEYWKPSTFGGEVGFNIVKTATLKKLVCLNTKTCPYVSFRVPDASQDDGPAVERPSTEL
SMILES,Activity [3] [%],Activity (Serum) [%],ED50 (Rattus norvegicus) [mg/kg],other results
CS(=O)(=O)c1ccc(-n2nc(C(=O)O)cc2-c2ccccc2)cc1,,,104,
CCOC(=O)c1cc(-c2ccc(C)cc2)n(-c2ccc(S(N)(=O)=O)cc2)n1,,,,inhibition [1]: 66%; inhibition [2]: 43%
Cc1ccc(-c2cc(C(=O)O)nn2-c2ccc(S(C)(=O)=O)cc2)cc1,,,85.2,
CC(=O)OCO/N=[N+](\[O-])N(C)CCOC(=O)c1cc(-c2ccccc2)n(-c2ccc(S(C)(=O)=O)cc2)n1,7.7,67.5,,
CN(CCO)/[N+]([O-])=N/[O-].[Na+],84.5,85,,
CS(=O)(=O)c1ccc(-n2nc(C(=O)O)cc2-c2ccc(F)cc2)cc1,,,104,

# Now from value to molecule, other results behind:
Activity [3] [%],Activity (Serum) [%],SMILES,ED50 (Rattus norvegicus) [mg/kg],other results
9.3,73.6,CC(=O)OCO/N=[N+](\[O-])N(C)CCOC(=O)c1cc(-c2ccc(F)cc2)n(-c2ccc(S(C)(=O)=O)cc2)n1,,
9.2,70.9,CC(=O)OCO/N=[N+](\[O-])N(C)CCOC(=O)c1cc(-c2ccc(C)cc2)n(-c2ccc(S(C)(=O)=O)cc2)n1,,
